Reference: EPA's CvTdb concentration-time database (doi:10.1093/toxsci/kfy020)

How the values were obtained:
rat [1] = assay: concentration in plasma after dosing; details: dosed: Pentadecafluorooctanoic acid, 0.2000000000 mg/kg, iv, male, Sprague-Dawley
rat [2] = assay: concentration in plasma after dosing; details: dosed: Pentadecafluorooctanoic acid, 1.0000000000 mg/kg, oral, male, Sprague-Dawley
rat [3] = assay: concentration in plasma after dosing; details: male
rat [4] = assay: concentration in plasma after dosing; details: dosed: Pentadecafluorooctanoic acid, 0.2000000000 mg/kg, iv, male, Sprague-Dawley; remark: listed apart in the source
rat [5] = assay: concentration in plasma after dosing; details: dosed: Pentadecafluorooctanoic acid, 1.0000000000 mg/kg, oral, male, Sprague-Dawley; remark: listed apart in the source
rat [6] = assay: concentration in plasma after dosing; details: dosed: Pentadecafluorooctanoic acid, 0.2000000000 mg/kg, iv, male, Sprague-Dawley; remark: listed apart in the source
rat [7] = assay: concentration in plasma after dosing; details: dosed: Pentadecafluorooctanoic acid, 1.0000000000 mg/kg, oral, male, Sprague-Dawley; remark: listed apart in the source
rat [8] = assay: concentration in plasma after dosing; details: dosed: Chloridazon, 0.80 mg/kg, iv, male, Sprague-Dawley
rat [9] = assay: concentration in plasma after dosing; details: dosed: Chloridazon, 4.17 mg/kg, oral, male, Sprague-Dawley
rat [10] = assay: concentration in plasma after dosing; details: dosed: Chloridazon, 4.17 mg/kg, oral, male, Sprague-Dawley; remark: listed apart in the source
rat [11] = assay: concentration in plasma after dosing; details: dosed: Chloridazon, 0.80 mg/kg, iv, male, Sprague-Dawley; remark: listed apart in the source
rat [12] = assay: concentration in brain after dosing; details: dosed: Imipramine, 10.0000000000 mg/kg, iv, male, Wistar

O=C(O)C(F)(F)C(F)(F)C(F)(F)C(F)(F)C(F)(F)C(F)(F)C(F)(F)F [Pentadecafluorooctanoic acid]
concentration in plasma [ng/mL]
Details | rat [1] | rat [2] | rat [4] | rat [5] | rat [6] | rat [7]
0.25 h | – | 363 | – | 762 | – | 248
0.5 h | 188 | 540 | 245 | 608 | 150 | 379
1 h | 189 | 669 | 226 | 897 | 144 | 665
2 h | 196 | 957 | 236 | 950 | 138 | 764
4 h | 189 | 1040 | 196 | 924 | 168 | 765
5 min | 257 | – | 310 | – | 208 | –
8 h | 171 | 1100 | 207 | 1210 | 148 | 955
10 min | 207 | – | 280 | – | 176 | –
12 h | 135 | 1100 | 194 | 1180 | 147 | 1030
24 h | 168 | 1040 | 195 | 1130 | 141 | 1010
48 h | 148 | 1510 | 161 | 916 | 115 | 857
72 h | 122 | 663 | 153 | 855 | 98 | 563

rat [3], dosed: Pentadecafluorooctanoic acid, Sprague-Dawley
Details | concentration in plasma [ng/mL]
0.25 h, 1.0000000000 mg/kg, oral | 420
0.5 h, 0.2000000000 mg/kg, iv | 156
0.5 h, 1.0000000000 mg/kg, oral | 584
1 h, 0.2000000000 mg/kg, iv | 145
1 h, 1.0000000000 mg/kg, oral | 885
2 h, 0.2000000000 mg/kg, iv | 150
2 h, 1.0000000000 mg/kg, oral | 1170
4 h, 0.2000000000 mg/kg, iv | 141
4 h, 1.0000000000 mg/kg, oral | 1190
5 min, 0.2000000000 mg/kg, iv | 221
8 h, 0.2000000000 mg/kg, iv | 123
8 h, 1.0000000000 mg/kg, oral | 1140
10 min, 0.2000000000 mg/kg, iv | 188
12 h, 0.2000000000 mg/kg, iv | 142
12 h, 1.0000000000 mg/kg, oral | 1120
24 h, 0.2000000000 mg/kg, iv | 139
24 h, 1.0000000000 mg/kg, oral | 1270
48 h, 0.2000000000 mg/kg, iv | 59
48 h, 1.0000000000 mg/kg, oral | 911
72 h, 0.2000000000 mg/kg, iv | 100
72 h, 1.0000000000 mg/kg, oral | 655

Nc1cnn(-c2ccccc2)c(=O)c1Cl [Chloridazon]
concentration in plasma [ng/mL]
Details | rat [8] | rat [9] | rat [10] | rat [11]
0.167 h | 228 | – | – | 477
0.25 h | – | 402 | 476 | –
0.5 h | 352 | 466 | 636 | 349
1 h | 102 | 863 | 858 | 106
2 h | 23.6 | 337 | 586 | 11.4
4 h | 1.66 | 64.9 | 158 | 1.03
5 min | 371 | – | – | 404
8 h | 0.333 | 48.8 | 3.03 | 1.72
24 h | 0.0228 | 0.604 | 0.913 | 0.115
48 h | 0.0394 | 0.0265 | 0.0563 | –
72 h | – | 0.0146 | 0.00435 | 0.116

rat [3], dosed: Chloridazon, Sprague-Dawley
Details | concentration in plasma [ng/mL]
0.167 h, 0.80 mg/kg, iv | 54.2
0.25 h, 4.17 mg/kg, oral | 382
0.5 h, 0.80 mg/kg, iv | 144
0.5 h, 4.17 mg/kg, oral | 616
1 h, 0.80 mg/kg, iv | 88
1 h, 4.17 mg/kg, oral | 863
2 h, 0.80 mg/kg, iv | 106
2 h, 4.17 mg/kg, oral | 371
4 h, 0.80 mg/kg, iv | 88.3
4 h, 4.17 mg/kg, oral | 202
5 min, 0.80 mg/kg, iv | 84.5
8 h, 0.80 mg/kg, iv | 0.556
8 h, 4.17 mg/kg, oral | 93.2
24 h, 0.80 mg/kg, iv | 0.0877
24 h, 4.17 mg/kg, oral | 0.329
48 h, 0.80 mg/kg, iv | 0.0282
48 h, 4.17 mg/kg, oral | 0.0714
72 h, 0.80 mg/kg, iv | 0.072

CCCCNC(=O)NS(=O)(=O)c1ccc(C)cc1 [Tolbutamide]
rat [3], dosed: Tolbutamide
Details | concentration in plasma [ng/mL]
0.25 h, 20.0000000000 mg/kg, oral, Wistar | 79100
0.5 h, 20.0000000000 mg/kg, oral, Wistar | 84700
1 h, 10.0000000000 mg/kg, iv, Sprague-Dawley | 43400
1 h, 20.0000000000 mg/kg, oral, Wistar | 85900
1.5 h, 10.0000000000 mg/kg, iv, Sprague-Dawley | 38400
2 h, 10.0000000000 mg/kg, iv, Sprague-Dawley | 33400
2 h, 20.0000000000 mg/kg, oral, Wistar | 76400
3 h, 10.0000000000 mg/kg, iv, Sprague-Dawley | 29400
4 h, 10.0000000000 mg/kg, iv, Sprague-Dawley | 25300
4 h, 20.0000000000 mg/kg, oral, Wistar | 52900
5 h, 10.0000000000 mg/kg, iv, Sprague-Dawley | 23100
6 h, 10.0000000000 mg/kg, iv, Sprague-Dawley | 19500
6 h, 20.0000000000 mg/kg, oral, Wistar | 35800
8 h, 20.0000000000 mg/kg, oral, Wistar | 26600
10 min, 10.0000000000 mg/kg, iv, Sprague-Dawley | 64200
12 h, 20.0000000000 mg/kg, oral, Wistar | 17900
20 min, 10.0000000000 mg/kg, iv, Sprague-Dawley | 57100
40 min, 10.0000000000 mg/kg, iv, Sprague-Dawley | 49700

CNCCCN1c2ccccc2CCc2ccccc21 [desmethylimipramine]
rat [3], dosed: Imipramine, 10.0000000000 mg/kg, iv, Wistar
Details | concentration in plasma [ng/mL]
1 h | 290
2 h | 370
4 h | 300
5 min | 440
10 min | 570

rat [12]
Details | concentration in brain [µg/g]
0.5 h | 8.62
1 h | 1.08
2 h | 0.86
4 h | 0.72
5 min | 1.44
6 h | 0.69
10 min | 1.8

CNC(=O)Oc1cccc(N=CN(C)C)c1.Cl [Formetanate hydrochloride]
concentration in plasma [ng/mL], rat [3], dosed: Formetanate hydrochloride, Sprague-Dawley
Details | 0.25 h | 1 h | 2 h | 24 h | 48 h | 72 h
1.0000000000 mg/kg, iv | – | – | – | 7.9 | 2.2 | –
5.0000000000 mg/kg, oral | 262 | 53.2 | 9.57 | 1.64 | 12.4 | 5.13

CCOP(=S)(OCC)Oc1nc(Cl)c(Cl)cc1Cl [Chlorpyrifos]
concentration in plasma [ng/mL], rat [3], dosed: Chlorpyrifos, oral, F344
Details | 1 h | 3 h | 5 min | 6 h | 12 h | 20 min
5.0000000000 mg/kg | 1.39 | 30 | – | 13.1 | 1.81 | –
10.0000000000 mg/kg | 5.05 | 109 | – | 18.7 | 1.76 | –
50.0000000000 mg/kg | 51 | 326 | 0.559 | 79.3 | 15.5 | 1.42
100.0000000000 mg/kg | 246 | 759 | 0.665 | 202 | 278 | 7.47

CN(C)CCCN1c2ccccc2CCc2ccccc21 [Imipramine]
concentration in plasma [ng/mL], rat [3], dosed: Imipramine
Details | 0.1287 h | 0.25 h | 0.5 h | 1 h | 2 h | 4 h | 8 h | 16 h | 24 h | 208 s
10.0000000000 mg/kg, iv, Wistar | 1620 | – | 853 | 719 | 238 | 46.3 | – | – | – | 2340
50.0000000000 mg/kg, oral, Sprague-Dawley | – | 99.1 | 75.7 | 120 | 73.9 | 58.7 | 38.6 | 33.5 | 28.3 | –

rat [12]
Details | concentration in brain [µg/g]
1 h | 8.5
2 h | 3.6
4 h | 1.61
5 min | 14.7
10 min | 15.1

COCCc1ccc(OC[C@@H](O)CNC(C)C)cc1 [S-Metoprolol]
rat [3], dosed: Metoprolol, 15.0000000000 mg/kg, oral, Wistar
Details | concentration in plasma [ng/mL]
0.1 h | 93.2
0.5 h | 53
1 h | 13.9
1.5 h | 8.15
2 h | 6.61
2 min | 219
2.5 h | 2.14
3 h | 1.45
4 min | 425
8 min | 79.3
10 min | 68.6
20 min | 54.7
40 min | 38.4
50 min | 24.4
